Test results reported in US9255132B2, “Angiopoietin derived peptides” (Compugen Ltd., priority 2008, dated 2016).
Residues, ends and D or L forms follow the SMILES beside them.

Columns and labels:
[1] = tested on: avian chorioallantoic membrane (CAM); assay type: in vivo, Leghorn fertilized eggs; conditions: for inhibition of vessel length: peptide 0.5 and 5 nmol/CAM, 48 h after treatment, vs vehicle control
Protocol: CGEN-G6 [SEQ ID NO: 6], CGEN-F9 [SEQ ID NO: 7], CGEN-F12 [SEQ ID NO: 8], CGEN-C6 [SEQ ID NO: 9], CGEN-A11 [SEQ ID NO: 10], and CGEN-G2 [SEQ ID NO: 11], were analyzed for their ability to affect angiogenesis using the in ovo avian chorioallantoic membrane (CAM) model of angiogenesis, which is widely used as a model to examine compounds affecting angiogenesis (Richardson and Singh 2003, Curr Drug Targets Cardiovasc Haematol Disord., 3(2):155-85). Two positive controls were used: fumagillin as a general anti-angiogenic compound, and Tie2 neutralizing antibody as anti-angiogenic inhibitor of the Ang/Tie2 pathway. Leghorn fertilized eggs were incubated for 4 days at 37° C., when a window was opened on the egg's shell, exposing the CAM. Two different doses of peptides (0.5 and 5 nmol/CAM), Tie-2 neutralizing antibody (R&D Systems, Cat#AF313, 10 μg/ml; 0.4 μg/CAM) or fumagillin (Tocris Bioscience, Cat #1768; 5 μg/CAM) were applied in a 40 μl volume inside an area of 1 cm^2 (restricted by a plastic ring) of the CAM on day 9 of embryo development. The appropriate vehicle controls were also tested. Forty-eight hours after treatment and subsequent incubation at 37° C., CAMs were fixed in situ, excised from the eggs, placed on slides and left to air-dry. Pictures were taken through a stereoscope equipped with a digital camera and the total length of the vessels was measured using image analysis software (NIH Image). For each group a total of 17-24 eggs from three different experiments were used. Data are presented as means±SEM and expressed as % of vehicle control. Statistical analysis (ANOVA followed by Dunnett's post-hoc test) was performed using Graph Pad.
FIG. 6 depict results obtained on vessel length with peptides CGEN-G6 [SEQ ID NO: 6], CGEN-F9 [SEQ ID NO: 7], CGEN-F12 [SEQ ID NO: 8], CGEN-C6 [SEQ ID NO: 9], CGEN-A11 [SEQ ID NO: 10], and CGEN-G2 [SEQ ID NO: 11], compared to Tie2 neutralizing antibody (Ab) and the anti-angiogenic compound fumagillin. Neutralizing Tie2 Ab blocked vessel length by 36%, while the angiogenesis inhibitor fumagillin blocked vessel length by 32%.

[2] = tested on: oxygen-induced retinopathy (OIR); test: Rodent model of oxygen-induced retinopathy (OIR); assay type: in vivo, Sprague Dawley rats; conditions: for inhibition of pre-retinal neovascular growth (pathological angiogenesis): relative to PBS-injected eyes, P20
Description: In order to assess the in viva efficacy of CGEN-A 11 [SEQ ID NO: 10] in a disease model of angiogenesis, a rodent model of oxygen-induced retinopathy (OIR) was used. Sprague Dawley rats were raised from birth through day PI4 in a variable oxygen atmosphere consisting of 24-hour alternating cycles of 50% and 10% oxygen. Rats were predisposed to pathological retinal angiogenesis as a result of oxygen treatment. Upon removal from the oxygen exposure chamber on day P14, rats received intravitreal injections of CGEN-A11 [SEQ ID NO: 10] in one of two doses: 15 μg/ml (low) or 75 μg/ml (high), 100 μg/ml recombinant rat Tie-2/Fc (R&D Systems, 3874-T2) or 100 μg/ml anti-VEGFR2 (Sigma, V1014) as positive controls, a combination of CGEN-A11 [SEQ ID NO: 10] at 30 μg/ml and anti-VEGFR2 (100 μg/ml), or vehicle (PBS) at a volume of 5 μl. An additional similar intravitreal administration took place 3 days later, on day P17. All pups were sacrificed on day P20. Both normal, intra-retinal vascular growth and abnormal, pre-retinal neovascular growth were assessed at six days post-exposure (P20) in ADPase-stained retinal flat-mounts, using widely published methods (e.g. Penn J S et al., 1991, Invest Ophthalmol Vis Sci. 32(4):1147; MicLeod D S et al., 1987, Microvasc Res. 33:257-269). All assessments were performed by a single, highly trained observer, who was blinded to treatment group. Areas of normal and abnormal vascular growth were measured via computer-assisted image analysis using high-resolution digital images of the stained retinal flat-mounts. The data were subjected to analysis of variance to determine statistical significance and a Dunnett's post hoc test to identify how the various treatment groups compared.
Data are depicted using percent total retinal area vascularized. Sample sizes (10, 11 or 12) are indicated on each bar. […] These differences yielded statistical significance, both at p<0.0001. Statistical significance was calculated using area (mm^2) measurements.
Data are depicted as area vascularized (mm^2). Sample sizes (10, 11 or 12) are indicated on each bar.

Q: Which results are given for `CC(=O)N[C@@H](CCC(=O)O)C(=O)N[C@H](C(=O)N[C@@H](Cc1ccccc1)C(=O)N[C@@H](CC(C)C)C(=O)N[C@@H](CO)C(=O)N[C@H](C(=O)N[C@@H](CC(N)=O)C(=O)N[C@@H](CCCCN)C(=O)N[C@@H](CC(C)C)C(=O)N[C@@H](CCC(=O)O)C(=O)N[C@@H](CC(N)=O)C(=O)N[C@@H](CCC(N)=O)C(N)=O)[C@@H](C)O)[C@@H](C)O` [CGEN-A11, ETFLSTNKLENQ] (Ac-ETFLSTNKLENQ-NH2)?
A: inhibition of vessel length, rank among peptides ([1]; 5 nmole): greatest effect; inhibition of pre-retinal neovascular growth (pathological angiogenesis) ([2]; intravitreal 15 μg/ml): 38.9%; intra-retinal normal vascular growth compared to PBS control ([2]; intravitreal 75 μg/ml, 5 μl, P14 and P17, assessed P20, p<0.0001): statistically significant increase; inhibition of pre-retinal neovascular growth (pathological angiogenesis) ([2]; intravitreal 75 μg/ml, p=0.0126): 76.4%

Q: `CSCC[C@H](NC(=O)[C@H](CC(C)C)NC(=O)[C@H](CC(=O)O)NC(C)=O)C(=O)N[C@@H](CCC(=O)O)C(=O)N[C@H](C(=O)N[C@H](C(=O)N[C@@H](CC(N)=O)C(=O)N[C@@H](CC(N)=O)C(=O)N[C@@H](CC(C)C)C(=O)N[C@@H](CC(C)C)C(=O)N[C@H](C(=O)N[C@@H](CCSC)C(=O)N[C@@H](CCSC)C(=O)N[C@@H](CO)C(=O)N[C@H](C(=O)N[C@@H](CO)C(=O)N[C@@H](CC(N)=O)C(=O)N[C@@H](CO)C(=O)N[C@@H](C)C(=O)N[C@@H](CCCCN)C(=O)N[C@@H](CC(=O)O)C(N)=O)[C@@H](C)O)[C@@H](C)O)C(C)C)[C@@H](C)O` [CGEN-G6] (Ac-DLMETVNNLLTMMSTSNSAKD-NH2) was tested. Which “inhibition of vessel length” value [1] did it give?
A: did not inhibit angiogenesis

Q: `CC[C@H](C)[C@H](NC(=O)[C@H](C)NC(=O)[C@H](CCCNC(=N)N)NC(=O)[C@H](CCC(=O)O)NC(=O)[C@H](CC(C)C)NC(=O)[C@H](CCCCN)NC(=O)[C@H](CCCCN)NC(=O)[C@H](CC(C)C)NC(=O)[C@H](Cc1c[nH]c2ccccc12)NC(=O)[C@H](CCC(N)=O)NC(=O)[C@@H](NC(=O)[C@H](CC(N)=O)NC(=O)[C@H](CC(N)=O)NC(=O)[C@H](CCC(N)=O)NC(=O)[C@H](CC(C)C)NC(=O)[C@H](C)NC(=O)[C@H](CCC(N)=O)NC(=O)[C@H](CCC(=O)O)NC(=O)[C@H](CC(C)C)NC(=O)[C@H](CCC(N)=O)NC(=O)[C@H](CCCCN)NC(=O)[C@@H](NC(=O)[C@H](CCC(N)=O)NC(=O)[C@H](CCC(N)=O)NC(=O)[C@@H](NC(C)=O)[C@@H](C)O)C(C)C)[C@@H](C)O)C(=O)N[C@@H](CCCCN)C(=O)N[C@H](C(=O)N[C@H](C(=O)N[C@@H](CC(C)C)C(N)=O)[C@@H](C)CC)[C@@H](C)O` [CGEN-G2] (Ac-TQQVKQLEQALQNNTQWLKKLERAIKTIL-NH2) was tested. Which “inhibition of vessel length” value [1] did it give?
A: did not inhibit angiogenesis
